The values that follow come from patent US12157730B2, “Heteroaryl derivative, method for producing same, and pharmaceutical composition comprising same as effective component” (VORONOI INC., priority 2019, dated 2024).

This assay deals with T1, Ba/F3 cell EGFR Exon20 ins NPH (Homo sapiens, UniProt P00533, INS773NPH).
T1 construct: expressed in transfected cells; host or cells: Ba/F3
Description: Ba/F3 cell proliferation suppression, EGFR Exon20 ins NPH. It counts as cell-based. Conditions: GI50 class; Ba/F3 cell line with NPH inserted at Exon20 of EGFR; 72 hours. The essentials:
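Growth suppression determined as GI50 following 72 h exposure across 12 concentrations up to 50 um, with viability by luminescent ATP assay (CellTiter-Glo).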

For the compound `C=CC(=O)Nc1cc(Nc2cc(N3OCC[C@@H]3c3c(F)cccc3F)ncn2)c(OC)cc1N1CCC(N2CCN(C3CC3)[C@@H](C)C2)CC1` [Example 136, N-(2-(4-((S)-4-cyclopropyl-3-methylpiperazine-1-yl)piperidine-1-yl)-5-((6-((R)-3-(2,6-difluorophenyl)isoxazolidine-2-yl)pyrimidine-4-yl)amino)-4-methoxyphenyl) acrylamide], the “Ba/F3 (NPH) Activity” value is given as “B (50 nM ≤ GI50 < 500 nM)”.

For `C=CC(=O)Nc1cc(Nc2cc(N3OCC[C@@H]3c3cccc(Cl)c3Cl)ncn2)c(OC)cc1N1CCC(N2C[C@@H]3C[C@H]2CN3CC)CC1` [compound 607, N-(5-((6-((R)-3-(2,3-dichlorophenyl)isoxazolidine-2-yl)pyrimidine-4-yl)amino)-2-(4-((1S,4S)-5-ethyl-2,5-diazabicyclo[2.2.1]heptane-2-yl)piperidine-1-yl)-4-methoxyphenyl) acrylamide], the “Ba/F3 (NPH) Activity” value is “A (GI50 < 50 nM)”.

As for `C=CC(=O)Nc1cc(Nc2cc(N3OCC[C@@H]3Cc3cccc(F)c3C)ncn2)c(OC)cc1N1CCN(CC)CC1` [compound 1003, N-(2-(4-ethylpiperazine-1-yl)-5-((6-(S)-(3-(3-fluoro-2-methylbenzyl)isoxazolidine-2-yl)pyrimidine-4-yl)amino)-4-methoxyphenyl) acrylamide], the “Ba/F3 (NPH) Activity” value is listed as “A (GI50 < 50 nM)”.

Turning to `C=CC(=O)Nc1cc(Nc2cc(N3OCC[C@@H]3c3ccc(Cl)c(F)c3)ncn2)c(OC)cc1N1CCC(N2C[C@@H]3C[C@H]2CN3C)CC1` [compound 857, N-(5-((6-((R)-3-(4-chloro-3-fluorophenyl)isoxazolidine-2-yl)pyrimidine-4-yl)amino)-4-methoxy-2-(4-((1S,4S)-5-methyl-2,5-diazabicyclo[2.2.1]heptane-2-yl)piperidine-1-yl)phenyl)acrylamide], the “Ba/F3 (NPH) Activity” value was “A (GI50 < 50 nM)”.

As to `C=CC(=O)Nc1cc(Nc2cc(N3OCC[C@@H]3c3ccc(Cl)c(F)c3)ncn2)c(OC)cc1N1CCC(N2CCN(C3CC3)CC2)CC1` [Example 63, N-(5-((6-((R)-3-(4-chloro-3-fluorophenyl)isoxazolidine-2-yl)pyrimidine-4-yl)amino)-2-(4-(4-cyclopropylpiperazine-1-yl)piperidine-1-yl)-4-methoxyphenyl) acrylamide], the “Ba/F3 (NPH) Activity” value is “A (GI50 < 50 nM)”.

Consider `C=CC(=O)Nc1cc(Nc2cc(N3OCC[C@@H]3c3cccc(C#N)c3)ncn2)c(OC)cc1N1CCC(N2CC3CCC(C2)N3C2CC2)CC1` [Example 133, N-(5-((6-((R)-3-(3-cyanophenyl)isoxazolidine-2-yl)pyrimidine-4-yl)amino)-2-(4-(8-cyclopropyl-3,8-diazabicyclo[3.2.1]octan-3-yl)piperidine-1-yl)-4-methoxyphenyl) acrylamide], for which the “Ba/F3 (NPH) Activity” value was “B (50 nM ≤ GI50 < 500 nM)”.

Turning to `C=CC(=O)Nc1cc(Nc2cc(N3OCC[C@@H]3c3ccc(Cl)cc3F)ncn2)c(OC)cc1N1CC[C@@H](N2CCOCC2)C1` [compound 406, N-(5-((6-((R)-3-(4-chloro-2-fluorophenyl)isoxazolidine-2-yl)pyrimidine-4-yl)amino)-4-methoxy-2-((R)-3-morpholinopyrolidine-1-yl)phenyl)acrylamide], the “Ba/F3 (NPH) Activity” value was “A (GI50 < 50 nM)”.

In the case of `C=CC(=O)Nc1cc(Nc2cc(N3OCC[C@@H]3Cc3cccc(Cl)c3F)ncn2)c(OC)cc1N1CCC(N2C[C@H]3C[C@@H]2CO3)CC1` [compound 1021, N-(2-(4-((1R,4R)-2-oxa-5-azabicyclo [2.2.1]heptane-5-yl)piperidine-1-yl)-5-((6-((S)-3-(3-chloro-2-fluorobenzyl)isoxazolidine-2-yl)pyrimidine-4-yl)amino)-4-methoxyphenyl) acrylamide], the “Ba/F3 (NPH) Activity” value is given as “A (GI50 < 50 nM)”.

For the compound `C=CC(=O)Nc1cc(Nc2cc(N3OCC[C@@H]3c3cccc(Cl)c3Cl)ncn2)c(OC)cc1N1CCN(C2CCN(C)CC2)CC1` [compound 562, N-(5-((6-((R)-3-(2,3-dichlorophenyl)isoxazolidine-2-yl)pyrimidine-4-yl)amino)-4-methoxy-2-(4-(1-methylpiperidine-4-yl)piperazine-1-yl)phenyl) acrylamide], the “Ba/F3 (NPH) Activity” value is listed as “B (50 nM ≤ GI50 < 500 nM)”.

For the compound `C=CC(=O)Nc1cc(Nc2cc(N3OCC[C@@H]3c3ccc(Cl)cc3)ncn2)c(OC)cc1N1CCC(N2CCN(C(C)C)CC2)CC1` [compound 807, N-(5-((6-((R)-3-(4-chlorophenyl)isoxazolidine-2-yl)pyrimidine-4-yl)amino)-2-(4-(4-isopropylpiperazine-1-yl)piperidine-1-yl)-4-methoxyphenyl) acrylamide], the “Ba/F3 (NPH) Activity” value is on record as “A (GI50 < 50 nM)”.

Regarding `C=CC(=O)Nc1cc(Nc2cc(N3OCC[C@@H]3c3ccc(F)c(F)c3F)ncn2)c(OC)cc1N1CCN(CC)CC1` [compound 570, N-(2-(4-ethylpiperazine-1-yl)-4-methoxy-5-((6-((R)-3-(2,3,4-trifluorophenyl)isoxazolidine-2-yl)pyrimidine-4-yl)amino)phenyl) acrylamide], the “Ba/F3 (NPH) Activity” value was “A (GI50 < 50 nM)”.

`C=CC(=O)Nc1cc(Nc2cc(N3OCC[C@@H]3c3cccc(OC)c3)ncn2)c(OC)cc1N1CCC(N2C[C@@H]3C[C@H]2CO3)CC1` [Example 27, N-(2-(4-((1S,4S)-2-oxa-5-azabicyclo[2.2.1]heptane-5-yl)piperidine-1-yl)-4-methoxy-5-((6-((R)-3-(3-methoxyphenyl)isoxazolidine-2-yl)pyrimidine-4-yl)amino)phenyl) acrylamide]: the “Ba/F3 (NPH) Activity” value is “A (GI50 < 50 nM)”.

Regarding `C=CC(=O)Nc1cc(Nc2cc(N3OCC[C@@H]3c3ccc(F)c(Cl)c3)ncn2)c(OC)cc1N1CCC(N2C[C@@H](C)N(CC)[C@@H](C)C2)CC1` [compound 370, N-(5-((6-((R)-3-(3-chloro-4-fluorophenyl)isoxazolidine-2-yl)pyrimidine-4-yl)amino)-2-(4-((3S,5R)-4-ethyl-3,5-dimethylpiperazine-1-yl)piperidine-1-yl)-4-methoxyphenyl) acrylamide], the “Ba/F3 (NPH) Activity” value was “A (GI50 < 50 nM)”.

For the compound `C=CC(=O)Nc1cc(Nc2cc(N3OCC[C@@H]3c3cccc(F)c3)ncn2)c(OC)cc1N1CCC(N2C[C@@H]3C[C@H]2CN3C)CC1` [compound 837, N-(5-((6-((R)-3-(3-fluorophenyl)isoxazolidine-2-yl)pyrimidine-4-yl)amino)-4-methoxy-2-(4-((1S, 4S)-5-methyl-2,5-diazabicyclo[2.2.1]heptane-2-yl)piperidine-1-yl)phenyl)acrylamide], the “Ba/F3 (NPH) Activity” value is “A (GI50 < 50 nM)”.

For `C=CC(=O)Nc1cc(Nc2cc(N3OCC[C@@H]3c3cccc(Cl)c3Cl)ncn2)c(OC)cc1N1CCC(N2CCN(CC)CC2)CC1` [compound 569, N-(5-((6-((R)-3-(2,3-dichlorophenyl)isoxazolidine-2-yl)pyrimidine-4-yl)amino)-2-(4-(4-ethylpiperazine-1-yl)piperidine-1-yl)-4-methoxyphenyl) acrylamide], the “Ba/F3 (NPH) Activity” value is listed as “A (GI50 < 50 nM)”.

Regarding `C=CC(=O)Nc1cc(Nc2cc(N3OCC[C@@H]3c3cccc(OC)c3)ncn2)c(OC)cc1N1CCC(N2CCN(CCC)CC2)CC1` [compound 549, N-(4-methoxy-5-((6-((R)-3-(3-methoxyphenyl)isoxazolidine-2-yl)pyrimidine-4-yl)amino)-2-(4-(4-propylpiperazine-1-yl)piperidine-1-yl)phenyl) acrylamide], the “Ba/F3 (NPH) Activity” value is “A (GI50 < 50 nM)”.
